Measurements as given in the NIST ThermoML archive (doi:10.1021/acs.jced.7b00964).
± gives the expanded uncertainty stated by the source.

Details: Liquid, Closed cell (Static) method

SMILES | vapor or sublimation pressure (243.15 K) | vapor or sublimation pressure (253.15 K) | vapor or sublimation pressure (263.15 K) | vapor or sublimation pressure (273.15 K) | vapor or sublimation pressure (283.15 K)
FC(F)(F)I [trifluoroiodomethane] | 71.7 ± 1 kPa | 109 ± 1 kPa | 160.4 ± 1 kPa | 228.2 ± 1.1 kPa | 316.3 ± 1.1 kPa
F/C=C/C(F)(F)F [trans-1,3,3,3-tetrafluoropropene] | 61 ± 1 kPa | 97 ± 1 kPa | 147.7 ± 1 kPa | 216.4 ± 1.1 kPa | 308.3 ± 1.1 kPa
CC(C)C [2-methylpropane] | 46.7 ± 1 kPa | 72.6 ± 1 kPa | 108.7 ± 1 kPa | 157.4 ± 1 kPa | 221 ± 1.1 kPa
